The source of these data is PMC7486443, “Generation of Phenothiazine with Potent Anti-TLK1 Activity for Prostate Cancer Therapy” (iScience, 2020).

Some targets named below: ACVR1 (Homo sapiens, UniProt Q04771); PKN1 (Homo sapiens, UniProt Q16512); KIT(V559D,V654A) (Homo sapiens, UniProt P10721, V559D/V654A); EGFR(G719C) (Homo sapiens, UniProt P00533, G719C); DAPK1 (Homo sapiens, UniProt P53355); BLK (Homo sapiens, UniProt P51451); MYO3A (Homo sapiens, UniProt Q8NEV4); EPHA6 (Homo sapiens, UniProt Q9UF33); DDR1 (Homo sapiens, UniProt Q08345); CLK2 (Homo sapiens, UniProt P49760).

Test in all cases: biochemical
Holding throughout (parameters): DiscoverX KINOMEscan scanMAX competition binding panel, single concentration, percent of control; remaining binding: dose or concentration left out as unconfirmed
What all share (conditions): KINOMEscan binding, percent of control; read-out: Table S4_SCANMAX REPORT - related to Fig. 1 / Percent Control

The target of test [1] is T1, ABL1(E255K)-phosphorylated (Homo sapiens, UniProt P00519, E255K).
T1 construct: phosphorylated

Test [2] has as its target T2, RSK1(Kin.Dom.1-N-terminal) (Homo sapiens, UniProt Q15418).
T2 construct: gene RPS6KA1; Kin.Dom.1-N-terminal

A further test deals with T3, PCTK1 (Homo sapiens, UniProt Q00536).
T3 construct: gene CDK16

Test [3] concerns the target T4, ABL1(M351T)-phosphorylated (Homo sapiens, UniProt P00519, M351T).
T4 construct: phosphorylated

Another test deals with T5, YSK4 (Homo sapiens, UniProt Q56UN5).
T5 construct: gene MAP3K19

A further test concerns the target T6, TRKA (Homo sapiens, UniProt P04629).
T6 construct: gene NTRK1

In the next test the target is T7, PFPK5(P.falciparum) (Plasmodium falciparum, UniProt P61075).
T7 construct: gene MAL13P1.279

Another test concerns the target T8, PKAC-beta (Homo sapiens, UniProt P22694).
T8 construct: gene PRKACB

Sequence of ACVR1 (Q04771 whole entry): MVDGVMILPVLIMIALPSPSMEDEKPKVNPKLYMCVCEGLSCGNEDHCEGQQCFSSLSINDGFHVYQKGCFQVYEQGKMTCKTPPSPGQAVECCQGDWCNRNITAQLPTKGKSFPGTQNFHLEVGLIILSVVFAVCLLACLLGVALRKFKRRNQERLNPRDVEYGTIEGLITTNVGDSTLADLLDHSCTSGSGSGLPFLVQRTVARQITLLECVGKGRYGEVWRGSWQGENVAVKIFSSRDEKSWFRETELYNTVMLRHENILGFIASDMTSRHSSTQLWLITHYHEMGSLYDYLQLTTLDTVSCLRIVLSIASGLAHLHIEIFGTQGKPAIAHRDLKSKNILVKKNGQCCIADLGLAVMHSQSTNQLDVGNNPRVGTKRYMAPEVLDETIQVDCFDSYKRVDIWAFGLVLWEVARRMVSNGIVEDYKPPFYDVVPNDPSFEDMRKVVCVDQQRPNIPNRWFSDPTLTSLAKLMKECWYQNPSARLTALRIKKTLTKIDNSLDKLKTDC
Sequence of DDR1 (Q08345 whole entry): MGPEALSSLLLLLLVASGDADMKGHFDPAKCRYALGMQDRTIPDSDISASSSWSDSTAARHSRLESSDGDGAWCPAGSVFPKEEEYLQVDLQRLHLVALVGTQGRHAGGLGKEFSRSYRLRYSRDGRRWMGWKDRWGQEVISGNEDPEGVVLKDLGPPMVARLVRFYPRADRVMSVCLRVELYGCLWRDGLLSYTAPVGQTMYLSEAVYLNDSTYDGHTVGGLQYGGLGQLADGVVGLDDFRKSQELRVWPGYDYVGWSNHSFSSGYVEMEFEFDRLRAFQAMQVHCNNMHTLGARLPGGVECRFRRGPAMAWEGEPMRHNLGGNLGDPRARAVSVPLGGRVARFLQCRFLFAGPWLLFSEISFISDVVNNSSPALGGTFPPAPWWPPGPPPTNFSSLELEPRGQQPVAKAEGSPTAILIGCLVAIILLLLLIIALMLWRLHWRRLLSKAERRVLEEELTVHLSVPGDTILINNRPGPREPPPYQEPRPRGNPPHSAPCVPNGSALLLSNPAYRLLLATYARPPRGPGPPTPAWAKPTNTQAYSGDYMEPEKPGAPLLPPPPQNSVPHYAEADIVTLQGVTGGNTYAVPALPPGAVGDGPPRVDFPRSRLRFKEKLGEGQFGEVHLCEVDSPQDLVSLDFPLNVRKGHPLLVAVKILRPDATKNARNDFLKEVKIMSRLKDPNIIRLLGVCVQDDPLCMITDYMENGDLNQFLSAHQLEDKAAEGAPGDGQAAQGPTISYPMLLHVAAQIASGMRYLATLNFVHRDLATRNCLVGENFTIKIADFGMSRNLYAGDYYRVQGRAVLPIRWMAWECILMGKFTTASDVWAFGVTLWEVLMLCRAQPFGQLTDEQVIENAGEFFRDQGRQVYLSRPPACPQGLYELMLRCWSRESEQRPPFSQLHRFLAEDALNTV
Sequence of EGFR(G719C) (P00533 whole entry G719C): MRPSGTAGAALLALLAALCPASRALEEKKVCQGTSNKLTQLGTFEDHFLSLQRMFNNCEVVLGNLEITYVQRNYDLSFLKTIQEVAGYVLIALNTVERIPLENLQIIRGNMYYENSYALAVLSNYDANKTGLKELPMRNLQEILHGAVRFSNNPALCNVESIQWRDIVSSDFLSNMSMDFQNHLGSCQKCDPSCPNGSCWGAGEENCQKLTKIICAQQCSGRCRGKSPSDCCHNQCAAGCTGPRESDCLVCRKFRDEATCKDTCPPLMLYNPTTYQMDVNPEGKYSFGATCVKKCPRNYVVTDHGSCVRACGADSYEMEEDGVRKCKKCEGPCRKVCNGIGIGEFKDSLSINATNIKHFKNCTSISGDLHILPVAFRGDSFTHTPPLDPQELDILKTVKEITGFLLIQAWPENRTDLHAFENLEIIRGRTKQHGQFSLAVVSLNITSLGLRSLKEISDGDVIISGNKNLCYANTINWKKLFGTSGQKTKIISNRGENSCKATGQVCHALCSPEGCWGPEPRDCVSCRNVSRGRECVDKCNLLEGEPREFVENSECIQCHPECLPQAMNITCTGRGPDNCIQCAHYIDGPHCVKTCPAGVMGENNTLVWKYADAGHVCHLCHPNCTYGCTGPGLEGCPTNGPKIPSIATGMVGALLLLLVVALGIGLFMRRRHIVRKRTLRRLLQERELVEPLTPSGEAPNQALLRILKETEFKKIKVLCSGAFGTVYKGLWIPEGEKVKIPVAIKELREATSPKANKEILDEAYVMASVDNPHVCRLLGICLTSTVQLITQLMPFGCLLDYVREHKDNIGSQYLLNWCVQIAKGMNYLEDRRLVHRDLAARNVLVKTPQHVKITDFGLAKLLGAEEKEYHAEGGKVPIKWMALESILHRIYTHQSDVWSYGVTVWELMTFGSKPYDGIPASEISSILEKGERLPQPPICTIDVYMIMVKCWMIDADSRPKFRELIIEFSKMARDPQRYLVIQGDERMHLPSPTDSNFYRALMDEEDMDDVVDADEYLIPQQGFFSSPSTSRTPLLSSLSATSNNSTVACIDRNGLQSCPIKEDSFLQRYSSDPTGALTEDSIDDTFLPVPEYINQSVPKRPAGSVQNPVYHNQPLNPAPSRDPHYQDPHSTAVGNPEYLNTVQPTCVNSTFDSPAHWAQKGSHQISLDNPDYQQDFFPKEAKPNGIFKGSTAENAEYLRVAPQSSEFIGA
Sequence of PKN1 (Q16512 whole entry): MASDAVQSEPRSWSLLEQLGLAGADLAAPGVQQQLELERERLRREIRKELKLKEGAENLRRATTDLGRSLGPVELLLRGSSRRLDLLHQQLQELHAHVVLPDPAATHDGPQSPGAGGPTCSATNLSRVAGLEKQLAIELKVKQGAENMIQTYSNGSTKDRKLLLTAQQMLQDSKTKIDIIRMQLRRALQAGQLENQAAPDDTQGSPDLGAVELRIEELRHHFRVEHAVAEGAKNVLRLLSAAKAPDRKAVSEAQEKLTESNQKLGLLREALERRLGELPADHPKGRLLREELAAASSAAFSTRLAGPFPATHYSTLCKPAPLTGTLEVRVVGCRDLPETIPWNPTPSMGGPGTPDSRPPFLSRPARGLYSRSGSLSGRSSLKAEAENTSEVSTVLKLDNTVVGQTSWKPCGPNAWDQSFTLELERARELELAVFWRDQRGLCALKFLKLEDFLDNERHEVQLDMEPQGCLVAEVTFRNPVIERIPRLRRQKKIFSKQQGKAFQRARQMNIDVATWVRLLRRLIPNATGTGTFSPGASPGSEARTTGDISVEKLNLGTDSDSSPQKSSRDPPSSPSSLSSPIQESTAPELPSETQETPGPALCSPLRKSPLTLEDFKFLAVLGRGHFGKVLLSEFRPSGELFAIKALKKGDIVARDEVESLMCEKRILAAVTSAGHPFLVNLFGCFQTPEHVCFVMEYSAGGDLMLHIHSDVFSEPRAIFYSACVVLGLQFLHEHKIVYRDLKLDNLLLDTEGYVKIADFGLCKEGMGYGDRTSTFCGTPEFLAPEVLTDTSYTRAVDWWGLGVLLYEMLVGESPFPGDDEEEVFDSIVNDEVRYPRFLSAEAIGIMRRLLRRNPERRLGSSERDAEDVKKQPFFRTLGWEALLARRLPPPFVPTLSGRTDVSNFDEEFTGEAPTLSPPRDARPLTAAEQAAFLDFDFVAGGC
Sequence of DAPK1 (P53355 whole entry): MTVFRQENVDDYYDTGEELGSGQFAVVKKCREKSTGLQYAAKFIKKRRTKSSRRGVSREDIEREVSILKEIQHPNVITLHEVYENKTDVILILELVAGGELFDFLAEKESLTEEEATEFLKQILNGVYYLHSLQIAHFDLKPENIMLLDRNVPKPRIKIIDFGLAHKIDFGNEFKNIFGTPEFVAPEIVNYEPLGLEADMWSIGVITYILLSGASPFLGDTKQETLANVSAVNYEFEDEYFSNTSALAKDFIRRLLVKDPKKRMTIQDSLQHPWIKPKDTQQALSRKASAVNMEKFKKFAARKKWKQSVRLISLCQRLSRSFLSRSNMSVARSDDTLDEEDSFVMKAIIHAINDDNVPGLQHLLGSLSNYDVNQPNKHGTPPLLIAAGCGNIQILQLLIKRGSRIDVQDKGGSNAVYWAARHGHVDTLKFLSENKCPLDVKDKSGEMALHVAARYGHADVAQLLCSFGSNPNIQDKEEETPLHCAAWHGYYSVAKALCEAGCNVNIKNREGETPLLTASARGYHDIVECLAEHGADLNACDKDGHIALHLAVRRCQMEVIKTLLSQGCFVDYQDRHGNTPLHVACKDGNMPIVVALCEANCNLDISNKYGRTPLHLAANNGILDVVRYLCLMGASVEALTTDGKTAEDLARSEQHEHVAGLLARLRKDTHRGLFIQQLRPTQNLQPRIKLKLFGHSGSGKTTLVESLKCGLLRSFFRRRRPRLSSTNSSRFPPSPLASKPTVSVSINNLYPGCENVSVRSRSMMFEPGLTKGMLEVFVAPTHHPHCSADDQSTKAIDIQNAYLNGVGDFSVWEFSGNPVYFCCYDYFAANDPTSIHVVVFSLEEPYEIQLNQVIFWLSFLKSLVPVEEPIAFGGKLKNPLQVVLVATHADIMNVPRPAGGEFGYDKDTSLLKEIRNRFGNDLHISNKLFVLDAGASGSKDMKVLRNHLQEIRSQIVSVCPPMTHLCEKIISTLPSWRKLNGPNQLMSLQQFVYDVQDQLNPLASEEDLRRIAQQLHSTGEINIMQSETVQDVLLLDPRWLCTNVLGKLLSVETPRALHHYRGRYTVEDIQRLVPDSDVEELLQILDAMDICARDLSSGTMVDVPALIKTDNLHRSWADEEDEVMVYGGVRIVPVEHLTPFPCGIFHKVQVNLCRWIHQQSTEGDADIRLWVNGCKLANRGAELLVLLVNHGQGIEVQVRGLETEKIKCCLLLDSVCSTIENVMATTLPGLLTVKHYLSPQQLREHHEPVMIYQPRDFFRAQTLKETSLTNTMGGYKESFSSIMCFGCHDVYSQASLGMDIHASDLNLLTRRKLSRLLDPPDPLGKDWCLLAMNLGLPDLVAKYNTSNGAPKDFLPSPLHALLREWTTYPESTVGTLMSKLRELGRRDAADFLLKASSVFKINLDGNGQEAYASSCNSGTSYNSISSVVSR

`c1ccc2c(c1)Sc1ccccc1N2CCN1CCOCC1` [J54]: the remaining binding was 94% at ACVR1; 100% on PKN1; 99% at KIT(V559D,V654A); 100% at EGFR(G719C); 99% at DAPK1; 60% at BLK. Moreover, the remaining binding in test [1] stood at 86%; in test [2], 100%; at PCTK1 it was 99%; in test [3] it was 100%; on YSK4 it was 86%; at MYO3A, 100%. Besides, the remaining binding came out at 82% at TRKA; 100% on EPHA6; 98% on PFPK5(P.falciparum); 100% at DDR1; 86% at PKAC-beta; 79% on CLK2.
